Measured values published in ChEMBL document CHEMBL1240393, “Full Resistance and decreased susceptibility to carbapenems in IMP-13-producing Pseudomonas aeruginosa isolates from an outbreak” (2010).
Values after ≈ are worked out from the molar mass of the structure shown.

Key:
Pseudomonas aeruginosa [1] = test: Antibacterial activity against beta-lactamase IMP-13 producing Pseudomonas aeruginosa isolate 17
Pseudomonas aeruginosa [2] = test: Antibacterial activity against beta-lactamase IMP-13 producing Pseudomonas aeruginosa isolate 5; type: functional
Pseudomonas aeruginosa [3] = test: Antibacterial activity against beta-lactamase IMP-13 producing Pseudomonas aeruginosa isolate 2; type: functional
Pseudomonas aeruginosa [4] = test: Antibacterial activity against beta-lactamase IMP-13 producing Pseudomonas aeruginosa isolate 15 assessed as zone of inhibition by disk diffusion assay; type: functional
Pseudomonas aeruginosa [5] = test: Antibacterial activity against beta-lactamase IMP-13 producing Pseudomonas aeruginosa isolate 15; type: functional
Pseudomonas aeruginosa [6] = test: Antibacterial activity against beta-lactamase IMP-13 producing Pseudomonas aeruginosa isolate 4; type: functional
Pseudomonas aeruginosa [7] = test: Antibacterial activity against beta-lactamase IMP-13 producing Pseudomonas aeruginosa isolate 8 assessed as zone of inhibition by disk diffusion assay; type: functional
Pseudomonas aeruginosa [8] = test: Antibacterial activity against beta-lactamase IMP-13 producing Pseudomonas aeruginosa isolate 3 assessed as zone of inhibition by disk diffusion assay; type: functional
Pseudomonas aeruginosa [9] = test: Antibacterial activity against beta-lactamase IMP-13 producing Pseudomonas aeruginosa isolate 11; type: functional
Pseudomonas aeruginosa [10] = test: Antibacterial activity against beta-lactamase IMP-13 producing Pseudomonas aeruginosa isolate 2 assessed as zone of inhibition by disk diffusion assay; type: functional
Pseudomonas aeruginosa [11] = test: Antibacterial activity against beta-lactamase IMP-13 producing Pseudomonas aeruginosa isolate 18
Pseudomonas aeruginosa [12] = test: Antibacterial activity against beta-lactamase IMP-13 producing Pseudomonas aeruginosa isolate 16 assessed as zone of inhibition by disk diffusion assay; type: functional
Pseudomonas aeruginosa [13] = test: Antibacterial activity against beta-lactamase IMP-13 producing Pseudomonas aeruginosa isolate 4 assessed as zone of inhibition by disk diffusion assay; type: functional
Pseudomonas aeruginosa [14] = test: Antibacterial activity against beta-lactamase IMP-13 producing Pseudomonas aeruginosa isolate 6 assessed as zone of inhibition by disk diffusion assay; type: functional
Pseudomonas aeruginosa [15] = test: Antibacterial activity against beta-lactamase IMP-13 producing Pseudomonas aeruginosa isolate 3; type: functional
Pseudomonas aeruginosa [16] = test: Antibacterial activity against beta-lactamase IMP-13 producing Pseudomonas aeruginosa isolate 12 assessed as zone of inhibition by disk diffusion assay; type: functional
Pseudomonas aeruginosa [17] = test: Antibacterial activity against beta-lactamase IMP-13 producing Pseudomonas aeruginosa isolate 14; type: functional
Pseudomonas aeruginosa [18] = test: Antibacterial activity against beta-lactamase IMP-13 producing Pseudomonas aeruginosa isolate 1; type: functional
Pseudomonas aeruginosa [19] = test: Antibacterial activity against beta-lactamase IMP-13 producing Pseudomonas aeruginosa isolate 14 assessed as zone of inhibition by disk diffusion assay; type: functional
Pseudomonas aeruginosa [20] = test: Antibacterial activity against beta-lactamase IMP-13 producing Pseudomonas aeruginosa isolate 18 assessed as zone of inhibition by disk diffusion assay; type: functional
Pseudomonas aeruginosa [21] = test: Antibacterial activity against beta-lactamase IMP-13 producing Pseudomonas aeruginosa isolate 6
Pseudomonas aeruginosa [22] = test: Antibacterial activity against beta-lactamase IMP-13 producing Pseudomonas aeruginosa isolate 10 assessed as zone of inhibition by disk diffusion assay; type: functional
Pseudomonas aeruginosa [23] = test: Antibacterial activity against beta-lactamase IMP-13 producing Pseudomonas aeruginosa isolate 17 assessed as zone of inhibition by disk diffusion assay; type: functional
Pseudomonas aeruginosa [24] = test: Antibacterial activity against beta-lactamase IMP-13 producing Pseudomonas aeruginosa isolate 10; type: functional
Pseudomonas aeruginosa [25] = test: Antibacterial activity against beta-lactamase IMP-13 producing Pseudomonas aeruginosa isolate 9
Pseudomonas aeruginosa [26] = test: Antibacterial activity against beta-lactamase IMP-13 producing Pseudomonas aeruginosa isolate 13 assessed as zone of inhibition by disk diffusion assay; type: functional
Pseudomonas aeruginosa [27] = test: Antibacterial activity against beta-lactamase IMP-13 producing Pseudomonas aeruginosa isolate 9 assessed as zone of inhibition by disk diffusion assay; type: functional
Pseudomonas aeruginosa [28] = test: Antibacterial activity against beta-lactamase IMP-13 producing Pseudomonas aeruginosa isolate 13; type: functional
Pseudomonas aeruginosa [29] = test: Antibacterial activity against beta-lactamase IMP-13 producing Pseudomonas aeruginosa isolate 7; type: functional
Pseudomonas aeruginosa [30] = test: Antibacterial activity against beta-lactamase IMP-13 producing Pseudomonas aeruginosa isolate 16; type: functional
Pseudomonas aeruginosa [31] = test: Antibacterial activity against beta-lactamase IMP-13 producing Pseudomonas aeruginosa isolate 11 assessed as zone of inhibition by disk diffusion assay; type: functional
Pseudomonas aeruginosa [32] = test: Antibacterial activity against beta-lactamase IMP-13 producing Pseudomonas aeruginosa isolate 1 assessed as zone of inhibition by disk diffusion assay; type: functional
Pseudomonas aeruginosa [33] = test: Antibacterial activity against beta-lactamase IMP-13 producing Pseudomonas aeruginosa isolate 12; type: functional
Pseudomonas aeruginosa [34] = test: Antibacterial activity against beta-lactamase IMP-13 producing Pseudomonas aeruginosa isolate 8; type: functional
Pseudomonas aeruginosa [35] = test: Antibacterial activity against beta-lactamase IMP-13 producing Pseudomonas aeruginosa isolate 7 assessed as zone of inhibition by disk diffusion assay; type: functional
Pseudomonas aeruginosa [36] = test: Antibacterial activity against beta-lactamase IMP-13 producing Pseudomonas aeruginosa isolate 5 assessed as zone of inhibition by disk diffusion assay; type: functional

| Structure (SMILES) | MIC (Pseudomonas aeruginosa [1]) [µg/mL] | MIC (Pseudomonas aeruginosa [2]) [µg/mL] | MIC (Pseudomonas aeruginosa [3]) [µg/mL] | inhibition zone (IZ) (Pseudomonas aeruginosa [4]) [mm] | MIC (Pseudomonas aeruginosa [5]) [µg/mL] | MIC (Pseudomonas aeruginosa [6]) [µg/mL] | inhibition zone (IZ) (Pseudomonas aeruginosa [7]) [mm] | inhibition zone (IZ) (Pseudomonas aeruginosa [8]) [mm] | MIC (Pseudomonas aeruginosa [9]) [µg/mL] | inhibition zone (IZ) (Pseudomonas aeruginosa [10]) [mm] | MIC (Pseudomonas aeruginosa [11]) [µg/mL] | inhibition zone (IZ) (Pseudomonas aeruginosa [12]) [mm] | inhibition zone (IZ) (Pseudomonas aeruginosa [13]) [mm] | inhibition zone (IZ) (Pseudomonas aeruginosa [14]) [mm] | MIC (Pseudomonas aeruginosa [15]) [µg/mL] | inhibition zone (IZ) (Pseudomonas aeruginosa [16]) [mm] | MIC (Pseudomonas aeruginosa [17]) [µg/mL] | MIC (Pseudomonas aeruginosa [18]) [µg/mL] | inhibition zone (IZ) (Pseudomonas aeruginosa [19]) [mm] | inhibition zone (IZ) (Pseudomonas aeruginosa [20]) [mm] | other results |
| --- | --- | --- | --- | --- | --- | --- | --- | --- | --- | --- | --- | --- | --- | --- | --- | --- | --- | --- | --- | --- | --- |
| C[C@@H](O)[C@H]1C(=O)N2C(C(=O)O)=C(SCCNC=N)C[C@H]12 [IMIPENEM ANHYDROUS] | 2 (≈ 6.68 µM) | 2 (≈ 6.68 µM) | 2 (≈ 6.68 µM) | 7 | 32 (≈ 107 µM) | 2 (≈ 6.68 µM) | 21 | 20 | 2 (≈ 6.68 µM) | 21 | 2 (≈ 6.68 µM) | 6 | 21 | 20 | 2 (≈ 6.68 µM) | 18 | 32 (≈ 107 µM) | 4 (≈ 13.4 µM) | 6 | 21 | MIC (Pseudomonas aeruginosa [21]): 2 µg/mL (≈ 6.68 µM); inhibition zone (IZ) (Pseudomonas aeruginosa [22]): 21 mm; inhibition zone (IZ) (Pseudomonas aeruginosa [23]): 20 mm; MIC (Pseudomonas aeruginosa [24]): 2 µg/mL (≈ 6.68 µM); MIC (Pseudomonas aeruginosa [25]): 2 µg/mL (≈ 6.68 µM); inhibition zone (IZ) (Pseudomonas aeruginosa [26]): 6 mm; inhibition zone (IZ) (Pseudomonas aeruginosa [27]): 18 mm; MIC (Pseudomonas aeruginosa [28]): 32 µg/mL (≈ 107 µM); MIC (Pseudomonas aeruginosa [29]): 2 µg/mL (≈ 6.68 µM); MIC (Pseudomonas aeruginosa [30]): 32 µg/mL (≈ 107 µM); inhibition zone (IZ) (Pseudomonas aeruginosa [31]): 21 mm; inhibition zone (IZ) (Pseudomonas aeruginosa [32]): 20 mm; MIC (Pseudomonas aeruginosa [33]): 4 µg/mL (≈ 13.4 µM); MIC (Pseudomonas aeruginosa [34]): 2 µg/mL (≈ 6.68 µM); inhibition zone (IZ) (Pseudomonas aeruginosa [35]): 21 mm; inhibition zone (IZ) (Pseudomonas aeruginosa [36]): 21 mm |
| C[C@@H](O)[C@H]1C(=O)N2C(C(=O)O)=C(S[C@@H]3CN[C@H](C(=O)N(C)C)C3)[C@H](C)[C@H]12 [MEROPENEM] | 2 (≈ 5.22 µM) | 4 (≈ 10.4 µM) | 4 (≈ 10.4 µM) | 6 | 128 (≈ 334 µM) | 4 (≈ 10.4 µM) | 21 | 16 | 4 (≈ 10.4 µM) | 17 | 2 (≈ 5.22 µM) | 6 | 21 | 16 | 4 (≈ 10.4 µM) | 17 | 128 (≈ 334 µM) | 4 (≈ 10.4 µM) | 6 | 21 | MIC (Pseudomonas aeruginosa [21]): 2 µg/mL (≈ 5.22 µM); inhibition zone (IZ) (Pseudomonas aeruginosa [22]): 20 mm; inhibition zone (IZ) (Pseudomonas aeruginosa [23]): 20 mm; MIC (Pseudomonas aeruginosa [24]): 4 µg/mL (≈ 10.4 µM); MIC (Pseudomonas aeruginosa [25]): 2 µg/mL (≈ 5.22 µM); inhibition zone (IZ) (Pseudomonas aeruginosa [26]): 6 mm; inhibition zone (IZ) (Pseudomonas aeruginosa [27]): 19 mm; MIC (Pseudomonas aeruginosa [28]): 128 µg/mL (≈ 334 µM); MIC (Pseudomonas aeruginosa [29]): 4 µg/mL (≈ 10.4 µM); MIC (Pseudomonas aeruginosa [30]): 128 µg/mL (≈ 334 µM); inhibition zone (IZ) (Pseudomonas aeruginosa [31]): 19 mm; inhibition zone (IZ) (Pseudomonas aeruginosa [32]): 18 mm; MIC (Pseudomonas aeruginosa [33]): 8 µg/mL (≈ 20.9 µM); MIC (Pseudomonas aeruginosa [34]): 4 µg/mL (≈ 10.4 µM); inhibition zone (IZ) (Pseudomonas aeruginosa [35]): 17 mm; inhibition zone (IZ) (Pseudomonas aeruginosa [36]): 17 mm |
